The values below come from US12195424B2, “Antibiotic compounds” (The General Hospital Corporation, priority 2017, dated 2025).

For series [1] the following is noted: in words; cited from earlier work.
The test system of the next series is human erythrocytes. Put plainly: Human blood hemolysis. The series is classed as cell-based. To be noted: compared with CD437, in words. How it is done: Human blood hemolysis. Hemolytic activity of retinoids on human erythrocytes was evaluated using a previously described method with modifications. 10% human erythrocytes were purchased from Rockland Immunochemicals (Limerick, PA, USA). The erythrocytes were diluted to 4% with PBS, and 100 μl was added to 100 μl of two-fold serial dilutions of compounds in PBS, 0.2% DMSO (negative control), or 2% Triton-X 100 (positive control) in a 96-well plate. The plate was incubated at 37° C. for 1 h and then centrifuged at 500×g for 5 min. 100 μl of the supernatant was transferred to a fresh 96-well plate and absorbance of supernatants was measured at 540 nm. Percent hemolysis was calculated using the following equation: (A540 nm of compound treated sample−A540 nm of 0.1% DMSO treated sample)/(A540 nm of 1% Triton X-100 treated sample−A540 nm of 0.1% DMSO treated sample)×100. HC50 (concentration of compound causing 50% hemolysis) was determined using SigmaPlot 10.0 (Systat Software Inc., San Jose, CA, USA).

For the next series, the system named is rat primary hepatocytes. Briefly: Hepatotoxicity in primary hepatocytes. The series is classed as cell-based. The settings on record: 24 h, compared with CD437, in words. How it is done: Cytotoxicity. Cryopreserved rat and human primary hepatocytes were purchased from the Cell Resource Core at Massachusetts General Hospital (Boston, MA, USA). The hepatocytes were cultured in a collagen sandwiched configuration in 24-well plates, as described previously. Briefly, 4×10^5 live cells were seeded in 24-well plates coated with rat tail collagen type I. Plates were incubated in a humidified 5% CO2 incubator at 37° C. for 4 h to allow cells to attach to the collagen gel. The cells were washed and then cultured in 0.5 ml standard hepatocyte culture medium consisting of pre-warmed Dulbecco's modified Eagle's medium (DMEM) media supplemented with 10% FBS, 0.5 U/ml insulin, 14 ng/ml glucagon, 20 ng/ml EGF, 7.5 μg/ml hydrocortisone and 200 U/ml penicillin-streptomycin. The cell cultures were incubated in a humidified 5% CO2 incubator at 37° C. At 24 h after seeding the cells, a top layer of collagen gel was deposited on the hepatocytes attached to the bottom collagen layer and incubated for additional 24 h. For cytotoxicity tests, HepG2, RPTEC, and NHEK were cultured at 70-80% confluence in tissue culture treated 96-well plates in a volume of 100 μl/well corresponding culture media. […] WST-1 reduction was measured at 450 nm. The percent fluorescence relative to that of the no-treatment control was calculated. […]

The test system of a further series is MRSA MW2 persisters. Put plainly: Persister killing assay. The series is classed as cell-based, S. aureus. To be noted: Staphylococcus aureus; MRSA MW2 persisters; read-out: MIC against MRSA persisters. How it is done:
Persister killing assay. […] Persistency of stationary-phase S. aureus VRS1 was evaluated by treating with 100×MIC daptomycin and 100×MIC linezolid, because the strain is resistant to vancomycin, gentamicin, ciprofloxacin, and rifampicin. We prepared persister cells of the 13 S. aureus strains by growing cultures overnight to stationary phase at 37° C. at 225 rpm. The overnight cultures were washed three times with PBS and diluted to ˜5×10^7 ? CFU/ml with the same buffer. 2 ml of the persister suspension containing appropriate concentrations of antibiotics was added to the wells of a 96-well assay block (Corning Costar 3960) and incubated at 37° C., with shaking at 225 rpm. At specific times, 400 μl samples were removed and washed once with PBS to remove the antibiotic. The samples were serially diluted 10^5 fold with PBS and spot-plated onto TSA plates. After incubating the plates overnight (˜18 h) at 37° C., the colonies were counted to enumerate the number of cells. These experiments were conducted in triplicate.

Another series deals with S. aureus strain MW2. Briefly: Minimal inhibitory concentration (MIC) assay. The series is classed as cell-based. To be noted: for fold decrease in antimicrobial activity (fold higher MIC) vs. parent compound CD437: relative to CD437; for MIC: growing MRSA MW2 cells; for antimicrobial activity: S. aureus MW2, in words. The text has this: Bacterial strains, growth conditions and persister isolation. Methicillin-resistant S. aureus (MRSA) strain MW2 BAA-1707, the VanA-type vancomycin-resistant S. aureus strain VRS1, 11 clinical S. aureus isolates 8 clinical Enterococcus faecium isolates (including VanB-type VRE isolates, C68 and WB312, and a VanA-type VRE isolate WC196), Klebsiella pneumoniae WGLW2 (BEI Resources, Manassas, VA, USA), Acinetobacter baumannii ATCC 17978, Pseudomonas aeruginosa PA14, and Enterobacter aerogenes ATCC 13048 were used to test antimicrobial activity. S. aureus and E. faecium strains were grown in tryptic soy broth (TSB) (BD, Franklin Lakes, NJ, USA) or brain-heart infusion (BHI) broth (BD, Franklin Lakes, NJ, USA), respectively at 37° C. K. pneumoniae, A. baumannii, P aeruginosa, and E. aerogenes were grown in Luria Bertani (LB) broth (BD, Franklin Lakes, NJ, USA).
(§1) Minimal inhibitory concentration (MIC) assay. The MICs of antibiotics were determined by the standard micro-dilution method recommended by the Clinical and Laboratory Standards Institute. The assay was conducted in triplicate.

Series [2] has as its system Cutibacterium (Propionibacterium) acnes. Put plainly: Growth inhibition / MIC against P. acnes. The series is classed as cell-based. The settings on record: in words (FIG. 11). On the procedure:
as §1
More specifically, uptake of SYTOX Green by Cutibacterium (Propionibacterium) acnes cells treated with retinoids CD437 and Analog 2 increased, indicating higher permeability (FIG. 12; individual data points (n=3 biologically independent samples) and means are shown).

The next series is described as follows: Maximum tolerated dose. The settings on record: mice, every 12 h for 3 days; Analog 2 10-80 mg/kg i.p., vancomycin 25 mg/kg i.p.; P>0.7. The series is classed as in vivo. How it is done: Maximum tolerated dose. Six-week-old female CD1 ICR outbred mice (20-25 g) were obtained from Charles River Laboratories (Wilmington, MA, USA). Analog 2 was dissolved in a 1:1 solution of Kolliphor EL (Sigma-Aldrich, St Louis, MO, USA) and ethanol and then diluted 1:10 in saline to a final concentration of 4 mg/ml. Groups of mice (n=6) were treated with 10, 20, 40, 80 mg/kg Analog 2 i.p. or vancomycin (25 mg/kg) every 12 h for 3 days. Control mice were injected with 400 μl of 10% Kolliphor EL/ethanol in saline i.p. every 12 h for 3 days. Mice were closely monitored until they were euthanized at 72 h from the first infection. After euthanizing mice, blood was collected by cardiac puncture. All samples were stored at 4° C. until for analysis. Serum was analyzed for alanine aminotransferase and urea nitrogen content with commercially available kits, following the manufacturer's protocol (Pointe Scientific, Canton, MI, USA). No statistical methods were used to predetermine samples size. The experiments were not randomized, and investigators were not blinded to allocation during experiments and outcome assessment. This study and all experimental protocols were approved by the Rhode Island Hospital Institutional Animal Care and Use Committee (RIH IACUC) and conducted in accordance with the Animal Welfare Act and National Institutes of Health guidelines for animal care and use. Statistical significance among each group was analyzed by one-way ANOVA with post-hoc Tukey test using PASW Statistics 18 (SPSS Inc. Chicago, IL, USA) and GraphPad Prism 7 (GraphPad Software, La Jolla, CA, USA).

Series [3] deals with Cutibacterium (Propionibacterium) acnes. Briefly: Morphology of treated P. acnes bacteria. The series is classed as cell-based. The settings on record: in words (FIG. 13).
The mark [4] stands for this setting: Staphylococcus aureus, read-out: MIC.

Values after ≈ are worked out from the molar mass of the structure shown. Like-named read-outs stand apart in the source and are kept apart here.

As to `O=C(O)/C=C/c1ccc(-c2ccc(O)c(C34CC5CC(CC(C5)C3)C4)c2)cc1` [adarotene], the excretion entry in series [1] is given as “excreted rapidly”.
`O=C(O)c1ccc2cc(-c3ccc(O)c(Cc4ccccc4)c3)ccc2c1` [Analog 9, 6-(3-benzyl-4-hydroxyphenyl)-2-naphthoic acid]: in the series with human erythrocytes, the hemolytic activity result was “similar”. The hepatotoxicity entry in the series on rat primary hepatocytes is reported as “similar”. Besides, the values for the minimal inhibitory concentration (MIC) in the series on MRSA MW2 persisters and in the series with S. aureus strain MW2 (setting [4]) were 16 µg/mL (≈ 45.1 µM) and 2 µg/mL (≈ 5.64 µM), respectively. The “fold decrease in antimicrobial activity (fold higher MIC) vs. parent compound CD437” value with S. aureus strain MW2 (MRSA MW2) stood at 2 fold.
With `COc1ccc(-c2ccc3cc(C(=O)O)ccc3c2)cc1C12CC3CC(CC(C3)C1)C2` [adapalene], in series [2], the growth inhibition entry is given as “not”.
With `COc1ccc(-c2ccc3cc(CO)ccc3c2)cc1C12CC3CC(CC(C3)C1)C2` [Analog 6, (6-(3-(adamantan-1-yl)-4-methoxyphenyl)naphthalen-2-yl)methanol], in the series with S. aureus strain MW2, the antimicrobial activity entry is on record as “eliminated”.
As to `O=C(O)c1ccc2cc(-c3cc(C45CC6CC(CC(C6)C4)C5)ccc3O)ccc2c1` [Analog 10, 6-(5-(adamantan-1-yl)-2-hydroxyphenyl)-2-naphthoic acid], the “fold decrease in antimicrobial activity (fold higher MIC) vs. parent compound CD437” value in the series on S. aureus strain MW2 (MRSA MW2) is above 30 fold. Moreover, the MIC with S. aureus strain MW2 (setting [4]) stood at 32 µg/mL (≈ 80.3 µM).
With `CN[C@H](CC(C)C)C(=O)N[C@H]1C(=O)N[C@@H](CC(N)=O)C(=O)N[C@H]2C(=O)N[C@H]3C(=O)N[C@H](C(=O)N[C@H](C(=O)O)c4cc(O)cc(O)c4-c4cc3ccc4O)[C@H](O)c3ccc(c(Cl)c3)Oc3cc2cc(c3O[C@@H]2O[C@H](CO)[C@@H](O)[C@H](O)[C@H]2O[C@H]2C[C@](C)(N)[C@H](O)[C@H](C)O2)Oc2ccc(cc2Cl)[C@H]1O` [vancomycin, reference compound], in the series “Maximum tolerated dose”, the “alanine aminotransferase (ALT) vs. control” value was “lack of significant differences” and the “blood urea nitrogen (BUN) vs. control” value is “lack of significant differences”.
For the molecule `O=C(O)c1cc(O)c2cc(-c3cc(C45CC6CC(CC(C6)C4)C5)ccc3O)ccc2c1` [Analog 13, 6-(5-(adamantan-1-yl)-2-hydroxyphenyl)-4-hydroxy-2-naphthoic acid], the “fold increase in antimicrobial activity vs. Analog 10” value with S. aureus strain MW2 (MRSA MW2, relative to Analog 10) amounted to 8 fold. In addition, the minimal inhibitory concentration (MIC) in the series on S. aureus strain MW2 (setting [4]) is 4 µg/mL (≈ 9.65 µM).
Take `O=C(O)c1cc(O)c2cc(-c3ccc(O)c(C45CC6CC(CC(C6)C4)C5)c3)ccc2c1` [Analog 11, 6-(3-(adamantan-1-yl)-4-hydroxyphenyl)-4-hydroxy-2-naphthoic acid]: the “fold decrease in antimicrobial activity (fold higher MIC) vs. parent compound CD437” value in the series on S. aureus strain MW2 (MRSA MW2) was determined as 4 fold. Besides, the MIC in the series with S. aureus strain MW2 (setting [4]) stood at 4 µg/mL (≈ 9.65 µM).
For the molecule `O=C(O)c1ccc2cc(-c3ccc(O)c(C45CC6CC(CC(C6)C4)C5)c3)ccc2c1` [CD437, reference compound], the morphology of bacteria result in series [3] was “altered and elongated”. Also, the growth inhibition entry in series [2] is “inhibit the growth”. The molecule also came in with an MIC against S. aureus strain MW2 of 1 µg/mL (≈ 2.51 µM).
Consider `O=C(O)c1cc(O)c2cc(-c3cc(C45CC6CC(CC(C6)C4)C5)ccc3O)cc(O)c2c1` [Analog 16, 6-(5-(adamantan-1-yl)-2-hydroxyphenyl)-4,8-dihydroxy-2-naphthoic acid], for which the minimum inhibitory concentration (MIC) in the series with S. aureus strain MW2 (setting [4]) was determined as 8 µg/mL (≈ 18.6 µM).
On to `NC(=O)c1ccc2cc(-c3ccc(O)c(C45CC6CC(CC(C6)C4)C5)c3)ccc2c1` [Analog 3, 6-(3-(adamantan-1-yl)-4-hydroxyphenyl)-2-naphthamide], for which the antimicrobial activity result in the series with S. aureus strain MW2 is on record as “comparatively low”.
Turning to `O=C(O)c1cc(O)c2cc(-c3ccc(O)c(C45CC6CC(CC(C6)C4)C5)c3)cc(O)c2c1` [Analog 14, 6-(3-(adamantan-1-yl)-4-hydroxyphenyl)-4,8-dihydroxy-2-naphthoic acid], the “fold decrease in antimicrobial activity vs. Analog 11” value in the series with S. aureus strain MW2 (MRSA MW2, another decrease relative to Analog 11) came out at 4 fold. In the series on S. aureus strain MW2 (setting [4]), the MIC is 16 µg/mL (≈ 37.2 µM).

One may read the MIC as the lowest concentration that inhibits growth of the organism.
